A short description of data set [1]: Photostability test. The class given is physicochemical. The settings on record: xenon lamp 18 million Lxs, exposed to light for 8 hr. How it is done: Form I crystal, Form II crystal and amorphous form of compound A were subjected to a photostability test under the following conditions. The results are shown in FIG. 17. light source: xenon lamp 18 million Lxs
conditions: sample (6 mg) was weighed in a transparent sample bottle, and exposed to light for 8 hr.
HPLC conditions: same as in Experimental Example 1

Data set [2] is described as follows: Dissolution rate (disc, Paddle Method). The class given is physicochemical. Conditions: 100 mg disc (diameter 12 mm), 0.5% aqueous Tween80 solution 900 mL, 37° C., Paddle Method 50 rpm. How it is done:
Form I crystal obtained in Example 1, Form II crystal obtained in Example 2 and amorphous compound A obtained in Production Example 1 (each 100 mg) were compression molded by a tableting machine for IR measurement having a metal mold pre-treated with magnesium stearate, and formed into discs (diameter 12 mm). Each disc was added to 0.5% aqueous Tween80 solution (900 mL, 37° C.), the concentration was measured every 10 minutes up to 1 hr, and every 1 hour after 1 hr up to 3 hr, by HPLC under the same conditions as in Experimental Example 1 (isocratic method using acetonitrile/5 mmol/L ammonium hydrogen carbonate (pH 8.0) (27:73) for mobile phase) while maintaining the temperature at 37° C. according to the dissolution test apparatus Paddle Method (50 rpm), and each dissolution rate was calculated. The results are shown in Table 11 below together with the results of the above-mentioned Experimental Example 2.

Data set [3] in a line: Solubility in 0.5% aqueous Tween80 solution at 37° C. The class given is physicochemical. The settings on record: for time at which near saturation was reached: stirring; for solubility: value of 3 hr. How it is done:
Form I crystal obtained in Example 1, Form II crystal obtained in Example 2 and amorphous compound A obtained in Production Example 1 (each 50 mg) were suspended in 0.5% aqueous Tween80 solution (20 mL), sonicated, aqueous 0.5% Tween80 solution (180 mL) was added and the mixture was stirred at 37° C.
The solubility was measured by HPLC under the same conditions (isocratic method using acetonitrile/5 mmol/L ammonium hydrogen carbonate (pH 8.0) (27:73) for mobile phase) as in Experimental Example 1 at the time points of 0.5 hr, 1 hr, 2 hr, 3 hr, 4 hr, 5 hr, and 6 hr from the start of stirring. As a result, amorphous compound A reached near saturation at about 0.5 hr, Form I crystal reached near saturation at about 1 hr and Form II crystal reached near saturation at about 2 hr. Therefore, the value of 3 hr was taken as the solubility. The results are shown in Table 11 below together with the results of the following Experimental Example 3.

Data set [4] can be described thus: Thermal stability (decomposition product by HPLC, colour after heating). The class given is physicochemical. Conditions: 6 hr; for amount of the decomposition product (decarboxylation substance of compound A): HPLC. How it is done:
Form I crystal obtained in Example 1 and Form II crystal obtained in Example 2 and amorphous compound A obtained in Production Example 1 were heated at 100° C. for 6 hr or 200° C. for 6 hr, and the amount of the decomposition product 2-(3,4-dichlorobenzyl)-5-methyl-4-oxo-3,4-dihydrothieno[2,3-d]pyrimidine (decarboxylation substance of compound A) was measured by HPLC. In the HPLC measurement, the sample was suspended in a mobile phase, dissolved by adding 1 equivalent of aqueous sodium hydroxide and then applied.
HPLC Measurement Condition measuring apparatus: Waters Alliance HPLC system detector: ultraviolet absorption spectrophotometer (measurement wavelength 225 nm) column: XBridge C18 (Waters) column temperature: constant temperature near 30° C. mobile phase A: acetonitrile mobile phase B: 5 mmol/L ammonium hydrogen carbonate (pH 8.0) gradient method of mobile phase A and mobile phase B: mobile phase A 23% (0 to 15 min), mobile phase A 23%→55% (15 to 30 min), mobile phase A 55% (30 to 50 min)

The nature of data set [5]: Dog absorption test. It is filed as in vivo. The settings on record: 0.3 mg/kg oral administration, average. How it is done:
Form I crystal, Form II crystal and amorphous form of compound A were subjected to a dog absorption test under the following conditions.
sample: except for amorphous form, samples of Form I crystal and Form II crystal sieved to have a particle size of 20 to 63 μm by wet classification (two kinds of sieves and flowing water were used) were used.
Preparation method: 25 mL of water was added to a sample (3 g), and the mixture was gently pulverized in a mortar, classified under pressurization, and draught-dried. As amorphous form, a sample pulverized in agate mortar was used.
method: 9 dogs, 3×3 crossover, 0.3 mg/kg oral administration

For data set [6], the target named is PDE5 (Homo sapiens, UniProt O76074). The settings on record: as described in WO 2006/135080; cited from earlier work.
For data set [7], the target named is PDE9 (Homo sapiens, UniProt O76083). The settings on record: as described in WO 2006/135080; cited from earlier work.
Chain of PDE9 (O76083 whole entry): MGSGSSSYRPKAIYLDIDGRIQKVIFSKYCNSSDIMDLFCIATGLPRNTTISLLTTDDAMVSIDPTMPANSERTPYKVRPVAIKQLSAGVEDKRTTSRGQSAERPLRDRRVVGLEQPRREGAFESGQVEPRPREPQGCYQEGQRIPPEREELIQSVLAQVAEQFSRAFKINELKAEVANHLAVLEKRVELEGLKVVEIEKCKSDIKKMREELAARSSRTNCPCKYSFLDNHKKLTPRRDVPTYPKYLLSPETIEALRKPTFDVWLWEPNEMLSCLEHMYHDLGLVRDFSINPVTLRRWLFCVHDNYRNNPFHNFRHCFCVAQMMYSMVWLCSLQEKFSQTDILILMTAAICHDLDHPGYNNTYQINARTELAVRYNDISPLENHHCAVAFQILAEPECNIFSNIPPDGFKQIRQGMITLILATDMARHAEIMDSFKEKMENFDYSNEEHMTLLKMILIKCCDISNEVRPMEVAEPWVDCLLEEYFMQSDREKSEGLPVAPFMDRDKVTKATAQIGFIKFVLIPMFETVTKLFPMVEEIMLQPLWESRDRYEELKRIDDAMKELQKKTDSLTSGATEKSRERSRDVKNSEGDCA

Converted amounts (≈) assume the structure as drawn. Where two headings read alike, the source gives them in different places.

As usually defined, the solubility is the dissolved amount per volume that the medium holds. In general, Cmax refers to the maximum level reached in the sampled fluid or tissue. By MRT is commonly meant the average time that molecules of a dose stay in the body. One may read the Tmax as the time at which the peak concentration occurs. A word on the half-life: it is the time needed for the level to fall by half in the phase considered. Low values mean fast loss, high ones slow loss.

Consider `Cc1c(C(=O)O)sc2nc(Cc3ccc(Cl)c(Cl)c3)[nH]c(=O)c12` [Amorphous form, 2-(3,4-dichlorobenzyl)-5-methyl-4-oxo-3,4-dihydrothieno[2,3-d]pyrimidine-6-carboxylic acid], for which, in data set [1] (HPLC), the “impurity after light exposure” value was “exceeding 0.2%”. This molecule came in with a dissolution rate in data set [2] of 0.0052 µg/mL/min. Besides, in data set [3] (listed as amorphous compound A), the “time at which near saturation was reached” value (“time” below) is “about 0.5 hr”. This molecule also came in with a solubility in data set [3] of 37 µg/mL (≈ 100 µM). Moreover, in data set [4] (heated at 100° C.), the color of sample result is recorded as “slight brown” and the “amount of the decomposition product (decarboxylation substance of compound A)” value (from here on “amount of the decomposition product”) is 0.006%,. Further, in data set [4] (heated at 200° C.), the color of sample entry was “pale-brown” and the “amount of the decomposition product” value was 3.42%,. In data set [5], this molecule yielded an AUC0-t of 62.9 ng·h/mL, an AUCinf of 63.4 ng·h/mL, a maximum concentration (Cmax) of 10.3 ng/mL and an MRT of 6.31 h. For the same molecule, in data set [5], the T1/2 was determined as 3.05 h and the Tmax stood at 3.78 h.

Consider `Cc1c(C(=O)O)sc2nc(Cc3ccc(Cl)c(Cl)c3)[nH]c(=O)c12` [Form II crystal, 2-(3,4-dichlorobenzyl)-5-methyl-4-oxo-3,4-dihydrothieno[2,3-d]pyrimidine-6-carboxylic acid], for which the photostability entry in data set [1] is “comparatively stable”. This molecule also yielded a dissolution rate in data set [2] of 0.0011 µg/mL/min. For the same molecule, in data set [3], the “time” value was “about 2 hr” and the solubility came out at 10 µg/mL (≈ 27.1 µM). Besides, in data set [4] (heated at 100° C.), the color of sample result was “white” and the “amount of the decomposition product” value turned out to be 0%. Also, in data set [4] (heated at 200° C.), the color of sample result is “slight brown” and the “amount of the decomposition product” value was 0.07%,. In data set [5], this molecule registered an AUC0-t of 24.2 ng·h/mL, an AUCinf of 24.2 ng·h/mL, a peak concentration (Cmax) of 3.7 ng/mL and an MRT of 6.89 h. In data set [5], the T1/2 was found to be 3.32 h and the Tmax is 3.44 h.

`Cc1c(C(=O)O)sc2nc(Cc3ccc(Cl)c(Cl)c3)[nH]c(=O)c12` [Form I crystal, 2-(3,4-dichlorobenzyl)-5-methyl-4-oxo-3,4-dihydrothieno[2,3-d]pyrimidine-6-carboxylic acid]: the photostability result in data set [1] was “comparatively stable”. Also, the dissolution rate in data set [2] amounted to 0.0017 µg/mL/min. In addition, in data set [3], the “time” value is reported as “about 1 hr” and the solubility worked out at 15 µg/mL (≈ 40.6 µM). For the same molecule, in data set [4] (heated at 100° C.), the color of sample entry is “white” and the “amount of the decomposition product” value is reported as 0%. Further, in data set [4] (heated at 200° C.), the color of sample entry is “slight brown” and the “amount of the decomposition product” value was 0.05%,. Further, in data set [5], the AUC0-t came out at 64.6 ng·h/mL, the AUCinf came out at 65.6 ng·h/mL and the Cmax turned out to be 9.1 ng/mL. In addition, the half-life in data set [5] (in vivo, po, 0.3 mg/kg) is 3.5 h. Besides, in data set [5] (in vivo, po, 0.3 mg/kg, read-out: MRT), the MRT is 6.73 h. Also, in data set [5] (in vivo, po, 0.3 mg/kg, read-out: Tmax), the time to peak (Tmax) amounted to 3.06 h.

As to `Cc1c(C(=O)O)sc2nc(Cc3ccc(Cl)c(Cl)c3)[nH]c(=O)c12` [Compound A, 2-(3,4-dichlorobenzyl)-5-methyl-4-oxo-3,4-dihydrothieno[2,3-d]pyrimidine-6-carboxylic acid], the PDE5 inhibitory action result in data set [6] is given as “mild PDE5 inhibitory action”. Further, the PDE9 inhibitory action result in data set [7] was “high PDE9 inhibitory action”.

Values taken from US9006253B2, “Crystal of 2-(3,4-dichlorobenzyl)-5-methyl-4-oxo-3,4-dihydrothieno[2,3-D]pyrimidine-6-carboxylic acid” (ASKA Pharmaceutical Co., Ltd., priority 2010, dated 2015).
